Here are results for four compounds from patent publication US20250197337A1, “CONVERSION OF TRIACETIC ACID LACTONE TO POTASSIUM SORBATE” (priority 2023, published 2025).

Data set [1] relates to E. coli O157:H7 (ATCC 35150). The following applies: separate study; cited from earlier work.
Data set [2] relates to Penicillium italicum. Particulars: cited from earlier work.
For data set [3] the following is noted: room temperature; cited from earlier work.
Data set [4] relates to Escherichia coli 1-894-1. Nature of the data set: microbe, parasite or virus in culture. Here is the method: Isolated colonies of Escherichia coli 1-894-1 (ATCC, Manassas, Virginia, USA) were picked from the bacterial culture plate and inoculated into 4-5 mL of TSB liquid medium for all bacterial strains. TSB liquid medium was prepared by dissolving a mixture of 17.0 g pancreatic digest of casein, 3.0 g papaic digest of soybean, 2.5 g dextrose, 5.0 g sodium chloride, and 2.5 g dipotassium phosphate in a final volume of 1,000 mL of distilled water, stirring for at least for 20 minutes, and then sterilizing under high pressure ([…] for 20 minutes at 121° C.). To achieve log phase growth, bacterial cultures were incubated at 37° C. for 2-6 hours based on the 0.5 McFarland standard, which corresponds to approximately 1.5×10^8 CFU/mL when the optical density of a bacterial suspension ranged from 0.08 to 0.1. A 1:20 dilution was made by adding 2.0 ml of the original suspension to 38 mL of PBS buffer, and then a 1:10 dilution was prepared by adding 0.01 ml to each well to obtain a final concentration of about 5.0×10^5 CFU/mL.
(§1) To assess the effectiveness of KS against bacteria and fungi, several tests were conducted in accordance with the Antimicrobial Susceptibility Testing Standards outlined by the Clinical and Laboratory Standards Institute (Malvern, Pennsylvania, USA) (CLSI Mo2-A12, 2015) with some modifications, including the minimal inhibitory concentration (MIC), and an agar diffusion disc test. Potassium sorbate solutions with concentrations ranging from 0.5 to 8.0 mg/ml were combined with bacterial cells (10^5 CFU/mL) and fungal spores (105 conidia/mL) in TSB medium with a pH adjusted to 5.5 for bacteria and in Potato Dextrose Broth (“PDB”) medium (with an original pH of 5.5) for fungi. They were then incubated at 37° C. (for E. coli) for 24 hours and 25° C. (for P. chrysogenum) for 6 days. To determine the minimum inhibitory concentration (“MIC”) of antimicrobial substances, optical density (“OD”) at 600 nm was measured through a Bioscreen C device (Oy Growth Curves Ab Ltd., Turku, Finland) using turbidimetric measurements. The MIC refers to the lowest concentration of antimicrobial that prevents visible growth of microorganisms after incubation. For fungal growth, the MIC was determined based on the inhibition of mycelial growth. The negative control was added the same volume of deionized water without potassium sorbate to observe the growth of bacteria and fungi. Furthermore, to determine assess the survivability of cells and spores when exposed to potassium sorbate for 18 hours, microbial counts were expressed as the logarithm of colony forming units per ml (log CFU/mL). Each measurement was performed in triplicate.

The subject of data set [5] is Penicillium chrysogenum. The data set is described as follows: microbe, parasite or virus in culture. As to the method: as §1
The test system of data set [6] is P. chrysogenum. The following applies: for spores of P. chrysogenum: concentrations greater than 4 mg/ml, after 6 days of incubation. Here is the method: as §1
Data set [7] has as its system bacteria and fungi. Particulars: against bacteria and fungi. As to the method: as §1
Data set [8] has as its system E. coli. The following applies: concentration of >3 mg/ml; 24 hours at 37° C.
For data set [9] the following is noted: previous study; cited from earlier work.

Consider `C/C=C/C=C/C(=O)[O-].[K+]` [KS, potassium sorbate], for which the “MIC against E. coli O157:H7 (ATCC 35150)” value in data set [1] is 1600 µg/mL. Besides, the “MIC against Penicillium italicum” value in [2] is 15000 µg/mL. In addition, the solubility in water in [3] is given as 58.5 g per 100 ml.
With `C/C=C/C=C\C(=O)[O-].[K+]` [TAL-derived KS, cis-2, trans-4 potassium sorbate], the “inhibitory effect on the growth of E. coli” value is given as “mild inhibitory effect” in data set [4] (concentration of 2 mg/ml) and “significant inhibitory effect” in data set [4] (concentration of 4 mg/ml). Besides, the “antifungal activities compared with commercial KS” value in [5] is on record as “same antifungal activities as commercial KS”. For the same compound, the “MIC against P. chrysogenum (preventing mycelial growth)” value in data set [5] (PDB medium pH 5.5, 25° C., 6 days) amounted to 6000 µg/mL. Further, the “inhibition of P. chrysogenum growth as compared to C-KS” value in data set [6] (concentration of 6 mg/mL, 6 days of incubation) is given as “significant inhibition”. Moreover, in data set [6], the “spores of P. chrysogenum” value is “significantly decreased”. For the same compound, the “antimicrobial activity compared with commercial KS” value in data set [7] was “comparable antimicrobial activities”. Further, the “inhibitory effects against E. coli (CFU count)” value in data set [8] is given as “significant inhibitory effects”.
For the compound `C/C=C/C=C/C(=O)[O-].[K+]` [commercial KS, trans, trans-2,4-hexadienoic acid potassium salt], the MIC in [4] (Escherichia coli, 18941, 24 h, pH 5.5, read-out: MIC against E. coli) was 2000 to 4000 µg/mL; in data set [5] (Penicillium chrysogenum, 144 h, pH 5.5, read-out: MIC against P. chrysogenum (preventing mycelial growth)) it was 8000 µg/mL. In addition, the figures for the “inhibitory effect on the growth of E. coli” value in data set [4] (concentration of 2 mg/ml) and in data set [4] (concentration of 4 mg/ml) were “mild inhibitory effect” and “significant inhibitory effect”, respectively. The “spores of P. chrysogenum” value in data set [6] is on record as “significantly decreased”. Besides, the “inhibitory effects against E. coli (CFU count)” value in data set [8] is given as “significant inhibitory effects”.
With `C/C=C/C=C/C(=O)[O-].[K+]` [trans, trans-potassium sorbate], the “antimicrobial activity compared with the mixture of isomers” value in [9] is “higher antimicrobial activity than the mixture of isomers”.
